According to PubChem BioAssay (NCI):
Where “and” joins values, the source holds several entries; their conditions need not be identical. Equal entries are not always repeated.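 Exposure lasted 48 hours, with cells grown in 96-well plates and compounds tested at five concentrations. Abbreviation: GI50, concentration required for 50% inhibition of growth. The concentration for full growth arrest is given as TGI.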

Tests used:
Test in all cases: growth of human tumour cells (NCI), 48 h
HL-60(TB) leukemia = test system: HL-60(TB) leukemia
SNB-75 CNS = test system: SNB-75 CNS
TK-10 renal = test system: TK-10 renal
COLO 205 colon = test system: COLO 205 colon
SF-295 CNS = test system: SF-295 CNS
SK-OV-3 ovarian = test system: SK-OV-3 ovarian
UACC-257 melanoma = test system: UACC-257 melanoma
ACHN renal = test system: ACHN renal
KM12 colon = test system: KM12 colon
RXF 393 renal = test system: RXF 393 renal

COc1cccc(/C=N/[N-]C(N)=O)c1[O-].[Cu+2].[OH3+].c1cnc2c(c1)ccc1cccnc12
GI50 (HL-60(TB) leukemia): 20 µM | TGI (HL-60(TB) leukemia): 48.7 µM | TGI (SNB-75 CNS): 24.4 µM | TGI (TK-10 renal): 30.4 µM | TGI (COLO 205 colon): 32.5 µM | TGI (SF-295 CNS): 51.2 µM | TGI (SK-OV-3 ovarian): 25.2 µM | TGI (UACC-257 melanoma): 34.5 µM | TGI (ACHN renal): 40.3 µM | TGI (KM12 colon): 47.1 µM

CCOC(=O)C(Cc1ccc(OC(=O)c2ccc(OC)cc2OC)cc1)NC(=O)C(F)(F)F (stereo unspecified)
TGI (HL-60(TB) leukemia): 51.1 µM | TGI (RXF 393 renal): 36.2 µM | TGI (SNB-75 CNS): 33.1 µM | TGI (TK-10 renal): 42.7 µM | TGI (COLO 205 colon): 43.9 µM | TGI (SF-295 CNS): 91.5 µM | TGI (SK-OV-3 ovarian): > 100 µM | TGI (UACC-257 melanoma): 29.4 µM | TGI (ACHN renal): 30.9 µM | TGI (KM12 colon): 72.8 µM

COC1OC(C(=O)CP(=O)(OC)OC)C(OCc2ccccc2)C(OCc2ccccc2)C1OCc1ccccc1 (stereo unspecified)
TGI (HL-60(TB) leukemia): 59.4 µM and 47 µM | TGI (RXF 393 renal): 26.3 µM and 29.5 µM | TGI (SNB-75 CNS): 29.9 µM and 30.6 µM | TGI (TK-10 renal): 30.9 µM and 33.9 µM | TGI (COLO 205 colon): 32.7 µM and 33.5 µM | TGI (SF-295 CNS): 28.1 µM and 30.3 µM | TGI (SK-OV-3 ovarian): 32.7 µM and 32.6 µM | TGI (UACC-257 melanoma): 29.3 µM and 30.1 µM | TGI (ACHN renal): 29.4 µM and 29.9 µM | TGI (KM12 colon): 36.6 µM and 35.7 µM

O=CC(O)C(O)C(O)COc1cc(CO)cc2c1C(=O)c1ccccc1C2=O (stereo unspecified)
TGI (HL-60(TB) leukemia): > 100 µM | TGI (RXF 393 renal): > 100 µM | TGI (SNB-75 CNS): > 100 µM | TGI (TK-10 renal): > 100 µM | TGI (COLO 205 colon): > 100 µM | TGI (SF-295 CNS): > 100 µM | TGI (SK-OV-3 ovarian): > 100 µM | TGI (UACC-257 melanoma): > 100 µM | TGI (ACHN renal): > 31.6 µM | TGI (KM12 colon): > 100 µM

C/C(=C\CNc1ncnc2nc(Cl)[nH]c12)CO
TGI (HL-60(TB) leukemia): > 100 µM | TGI (RXF 393 renal): > 100 µM | TGI (SNB-75 CNS): > 100 µM | TGI (TK-10 renal): > 100 µM | TGI (COLO 205 colon): > 100 µM | TGI (SF-295 CNS): > 100 µM | TGI (SK-OV-3 ovarian): > 100 µM | TGI (UACC-257 melanoma): > 100 µM | TGI (ACHN renal): > 100 µM | TGI (KM12 colon): > 100 µM

CC(C)(C)OC(=O)N1C[C@H](CC(=O)OCc2ccccc2)C[C@H]1C(=O)OCC(Cl)(Cl)Cl
TGI (HL-60(TB) leukemia): > 50 µM | TGI (RXF 393 renal): > 50 µM | TGI (SNB-75 CNS): > 50 µM | TGI (TK-10 renal): > 50 µM | TGI (COLO 205 colon): 9.38 µM | TGI (SF-295 CNS): > 50 µM | TGI (SK-OV-3 ovarian): > 50 µM | TGI (UACC-257 melanoma): 31.3 µM | TGI (ACHN renal): > 50 µM | TGI (KM12 colon): > 50 µM

C/C=C/C=C/C1=NN(c2cccc(S(=O)(=O)O)c2)C2(C1)C(Cl)C(=O)N2c1nc2ccccc2s1 (stereo unspecified)
TGI (HL-60(TB) leukemia): 33.1 µM | TGI (RXF 393 renal): 24.3 µM | TGI (SNB-75 CNS): 25.9 µM | TGI (TK-10 renal): 27.8 µM | TGI (COLO 205 colon): 35.3 µM | TGI (SF-295 CNS): 31 µM | TGI (SK-OV-3 ovarian): 33.9 µM | TGI (UACC-257 melanoma): 33.5 µM | TGI (ACHN renal): 28.8 µM | TGI (KM12 colon): 27.3 µM

CCOC(=O)C(C)OC(=O)c1ccc(C)cc1 (stereo unspecified)
TGI (HL-60(TB) leukemia): > 100 µM | TGI (RXF 393 renal): > 100 µM | TGI (SNB-75 CNS): > 100 µM | TGI (TK-10 renal): > 100 µM | TGI (COLO 205 colon): > 100 µM | TGI (SK-OV-3 ovarian): > 100 µM | TGI (UACC-257 melanoma): > 100 µM | TGI (ACHN renal): > 100 µM | TGI (KM12 colon): > 100 µM

O=c1oc2c(ccc3occc32)c(N2CCCCC2)c1-c1ccccc1
TGI (HL-60(TB) leukemia): 80.1 µM | TGI (RXF 393 renal): > 100 µM | TGI (SNB-75 CNS): > 100 µM | TGI (COLO 205 colon): > 100 µM | TGI (SF-295 CNS): > 100 µM | GI50 (SK-OV-3 ovarian): > 100 µM | TGI (SK-OV-3 ovarian): > 100 µM | TGI (KM12 colon): > 100 µM

CCOC(=O)c1c(Nc2ccccc2)sc2cccnc12
TGI (HL-60(TB) leukemia): 51.3 µM | TGI (RXF 393 renal): > 86.6 µM | TGI (SNB-75 CNS): 59.3 µM | TGI (TK-10 renal): 86.1 µM | TGI (COLO 205 colon): > 60.5 µM | TGI (SF-295 CNS): 49.9 µM | TGI (SK-OV-3 ovarian): > 89.9 µM | TGI (UACC-257 melanoma): 51.1 µM | TGI (ACHN renal): > 88 µM | TGI (KM12 colon): 37.6 µM

Cc1cc(N2CCOCC2)nc(N(CCCNc2ccnc3cc(Cl)ccc23)Cc2ccc3c(c2)OCO3)n1
GI50 (SNB-75 CNS): 1.5 µM | TGI (SNB-75 CNS): 2.93 µM | GI50 (SK-OV-3 ovarian): 2.29 µM | TGI (SK-OV-3 ovarian): 4.54 µM | GI50 (UACC-257 melanoma): 1.99 µM | TGI (UACC-257 melanoma): 3.48 µM

CC(C)c1ccc2c(c1)[C@@]1(C)CC[C@H](C)C(C)(C)C1CC2 (stereo partly specified)
TGI (HL-60(TB) leukemia): 63.6 µM | TGI (RXF 393 renal): 33.2 µM | TGI (SNB-75 CNS): 31.6 µM | TGI (TK-10 renal): 33.1 µM | TGI (COLO 205 colon): 42.1 µM | TGI (SF-295 CNS): 38.3 µM | TGI (SK-OV-3 ovarian): 33.9 µM | TGI (UACC-257 melanoma): 36.7 µM | TGI (ACHN renal): 32.6 µM | TGI (KM12 colon): 38.4 µM

CC1=NN(c2cccc(Cl)c2)C(=N/c2nc3ccccc3s2)/C1=C\C=C\c1ccccc1
TGI (HL-60(TB) leukemia): 92.8 µM | TGI (RXF 393 renal): > 100 µM | TGI (TK-10 renal): > 100 µM | TGI (SF-295 CNS): > 100 µM | TGI (SK-OV-3 ovarian): > 100 µM | TGI (UACC-257 melanoma): > 100 µM | TGI (ACHN renal): 88.2 µM | TGI (KM12 colon): > 100 µM

NC(N)=NS(=O)(=O)c1ccc(Nc2c3ccccc3nc3c(C(=O)N4CCN(CCO)CC4)ccc(Cl)c23)cc1
TGI (HL-60(TB) leukemia): > 100 µM | TGI (RXF 393 renal): > 100 µM | TGI (SNB-75 CNS): > 100 µM | TGI (TK-10 renal): > 100 µM | TGI (COLO 205 colon): > 100 µM | TGI (SF-295 CNS): > 100 µM | TGI (SK-OV-3 ovarian): > 100 µM | TGI (UACC-257 melanoma): > 100 µM | TGI (ACHN renal): > 100 µM | TGI (KM12 colon): > 100 µM

CCOC(=O)C(=CNC(Cc1c[nH]c2ccccc12)C(=O)OC)C(=O)OCC (stereo unspecified)
TGI (HL-60(TB) leukemia): > 100 µM | TGI (SNB-75 CNS): > 100 µM | TGI (TK-10 renal): > 100 µM | TGI (COLO 205 colon): > 100 µM | TGI (SF-295 CNS): > 100 µM | TGI (SK-OV-3 ovarian): > 100 µM | TGI (ACHN renal): > 100 µM

O=C(CSc1nc2ccc(Cl)cc2c(=O)n1-c1ccccc1)N=Nc1c(O)[nH]c2ccc(F)cc12
TGI (HL-60(TB) leukemia): 7.25 µM | TGI (RXF 393 renal): 4.26 µM | TGI (SNB-75 CNS): 5.65 µM | TGI (TK-10 renal): 15.5 µM | TGI (COLO 205 colon): 4.81 µM | TGI (SF-295 CNS): 14.9 µM | TGI (SK-OV-3 ovarian): 22.3 µM | TGI (UACC-257 melanoma): 10.6 µM | TGI (ACHN renal): 4.1 µM | TGI (KM12 colon): 11.8 µM

COC(=N)C(C)C
TGI (HL-60(TB) leukemia): > 100 µM | TGI (RXF 393 renal): > 100 µM | TGI (SNB-75 CNS): > 100 µM | TGI (TK-10 renal): > 100 µM | TGI (COLO 205 colon): > 100 µM | TGI (SF-295 CNS): > 100 µM | TGI (SK-OV-3 ovarian): > 100 µM | TGI (UACC-257 melanoma): > 100 µM | TGI (ACHN renal): > 100 µM | TGI (KM12 colon): > 100 µM

CC(C)=CCC/C(C)=C/CC/C(C)=C/[C@@H]1[C@@H](CO)[C@]1(C)CC/C=C(\C)CCC=C(C)C
TGI (RXF 393 renal): 72.8 µM | TGI (SNB-75 CNS): > 100 µM | TGI (TK-10 renal): > 100 µM | TGI (COLO 205 colon): > 100 µM | TGI (SF-295 CNS): > 100 µM | TGI (SK-OV-3 ovarian): > 100 µM | TGI (UACC-257 melanoma): > 100 µM | TGI (ACHN renal): 31.5 µM | TGI (KM12 colon): > 100 µM

CC(C)(C)c1ccc(O)c(Br)c1
TGI (HL-60(TB) leukemia): > 100 µM | TGI (RXF 393 renal): > 100 µM | TGI (SNB-75 CNS): > 100 µM | TGI (TK-10 renal): > 100 µM | TGI (COLO 205 colon): > 100 µM | TGI (SF-295 CNS): > 100 µM | TGI (SK-OV-3 ovarian): > 100 µM | TGI (UACC-257 melanoma): > 100 µM | TGI (ACHN renal): > 100 µM | TGI (KM12 colon): > 100 µM

COC(=O)c1c(O)ccc2c1c1c(n2Cc2ccccn2)C(=O)c2ccccc2C1
TGI (HL-60(TB) leukemia): > 100 µM | TGI (RXF 393 renal): > 100 µM | TGI (SNB-75 CNS): > 100 µM | TGI (TK-10 renal): > 100 µM | TGI (COLO 205 colon): 28.5 µM | TGI (SF-295 CNS): > 100 µM | TGI (SK-OV-3 ovarian): > 100 µM | TGI (UACC-257 melanoma): > 100 µM | TGI (KM12 colon): > 100 µM
